These results are taken from ChEMBL document CHEMBL6109077, “Design, synthesis and in vitro validation of bivalent binders of SARS-CoV-2 spike protein: Obeticholic, betulinic and glycyrrhetinic acids as building blocks” (Bioorg Med Chem, 2025).

Experiment [1] deals with 293T/ACE2. Description: Inhibition of spike protein Omicron BA.2 mutant in pseudotyped SARS-CoV-2 infected in 293T/ACE2 cells assessed as reduction in viral entry at 10 uM preincubated with virus for 1 hr followed by cell infection and measured after 48 hrs by bright-glo luciferase reporter gene assay. As to conditions: Severe acute respiratory syndrome coronavirus 2, time 49.0 hrs. In kind it is cell-based.

In experiment [2] the test system is 293T/ACE2. The experiment can be described thus: Inhibition of spike protein D614G mutant in pseudotyped SARS-CoV-2 infected in 293T/ACE2 cells assessed as reduction in viral entry at 10 uM preincubated with virus for 1 hr followed by cell infection and measured after 48 hrs by bright-glo luciferase reporter gene assay. Format: cell-based. As to conditions: Severe acute respiratory syndrome coronavirus 2, time 49.0 hrs. Background: In a reporter assay the amount or activity of a reporter protein is the signal.

Activity calls are given as the source filed them. No cut-off for these calls is given here.

Turning to `C=C(C)[C@@H]1CC[C@]2(C(=O)OC)CC[C@]3(C)[C@H](CC[C@@H]4[C@@]5(C)CC[C@H](OC(=O)CCCCCCCCNC(=O)CC[C@@H](C)[C@H]6CC[C@H]7[C@@H]8[C@H](O)[C@H](CC)[C@@H]9C[C@H](O)CC[C@]9(C)[C@H]8CC[C@]67C)C(C)(C)[C@@H]5CC[C@]43C)[C@@H]12`, the inhibition result in experiment [1] and in experiment [2] was “Active; Statistically Significant Effect Observed” in each case.
`C=C(C)[C@@H]1CC[C@]2(C(=O)OC)CC[C@@]3(C)[C@@H]4CC[C@@H]5[C@H](CC[C@H](OC(=O)CCCCc6cn(CCCCCCNC(=O)CC[C@@H](C)[C@H]7CC[C@H]8[C@@H]9[C@H](O)[C@H](CC)[C@@H]%10C[C@H](O)CC[C@]%10(C)[C@H]9CC[C@]78C)nn6)C5(C)C)[C@H]4CC[C@@H]3[C@@H]12`: the inhibition entry in experiment [1] was “Active; Significant Effect Observed”. Besides, in experiment [2], the inhibition result is “inactive”.
Taken in the same sequence, the figures for `CC1(C)[C@@H](O)CC[C@]2(C)[C@H]3C(=O)C=C4[C@@H]5C[C@@](C)(C(=O)O)CC[C@]5(C)CC[C@@]4(C)[C@]3(C)CC[C@@H]12` were “Not active; No Statistically Significant Decrease Observed” and “Not active; No Statistically Significant Decrease Observed”.
Taken in the same sequence, the figures for `CC[C@H]1[C@@H](O)[C@@H]2[C@H](CC[C@]3(C)[C@@H]([C@H](C)CCC(=O)O)CC[C@@H]23)[C@@]2(C)CC[C@@H](O)C[C@@H]12` were “Not active; No Statistically Significant Decrease Observed” and “Not active; No Statistically Significant Decrease Observed”.
Taken in the same sequence, the figures for `C=C(C)[C@@H]1CC[C@]2(C(=O)OC)CC[C@]3(C)[C@H](CC[C@@H]4[C@@]5(C)CC[C@H](OC(=O)CCCNC(=O)CC[C@@H](C)[C@H]6CC[C@H]7[C@@H]8[C@H](O)[C@H](CC)[C@@H]9C[C@H](O)CC[C@]9(C)[C@H]8CC[C@]67C)C(C)(C)[C@@H]5CC[C@]43C)[C@@H]12` were “Active; Statistically Significant Effect Observed” and “Active; Statistically Significant Effect Observed”.
With `CC[C@H]1[C@@H](O)[C@@H]2[C@H](CC[C@]3(C)[C@@H]([C@H](C)CCC(=O)NCCCCCCn4cc(CCCCC(=O)O[C@H]5CC[C@H]6[C@@H](CC[C@]7(C)[C@@H]6C(=O)C=C6[C@@H]8C[C@@](C)(C(=O)OC)CC[C@]8(C)CC[C@]67C)C5(C)C)nn4)CC[C@@H]23)[C@@]2(C)CC[C@@H](O)C[C@@H]12`, the inhibition entry in experiment [1] and in experiment [2] was “inactive” throughout.
On to `C=C(C)[C@@H]1CC[C@]2(C(=O)O)CC[C@]3(C)[C@H](CC[C@@H]4[C@@]5(C)CC[C@H](O)C(C)(C)[C@@H]5CC[C@]43C)[C@@H]12`, for which the inhibition entry in experiment [1] and in experiment [2] was “Not active; No Statistically Significant Decrease Observed” each time.
